Measurements published in publication PMC5547380, “Molecular cloning and characterization of protein disulfide isomerase of Brugia malayi, a human lymphatic filarial parasite” (EXCLI Journal, 2017).
Where two headings read alike, the source gives them in different places.

Target: T1, Brugia malayi Protein disulfide isomerase (BmPDI) (Brugia malayi, UniProt A0A1S0S010)
T1 construct: gene pdi; recombinant 6XHis-tagged BmPDI expressed in E. coli
Experiment: refolding of reduced denatured RNase A, RNA hydrolysis followed by absorbance at […] nm
Assay type: biochemical

| Structure (SMILES) | IC50 (read-out: IC50) | IC50 |
| --- | --- | --- |
| Cc1ccc(C(=O)Nc2ccc(S(=O)(=O)O)c3cc(S(=O)(=O)O)cc(S(=O)(=O)O)c23)cc1NC(=O)c1cccc(NC(=O)Nc2cccc(C(=O)Nc3cc(C(=O)Nc4ccc(S(=O)(=O)O)c5cc(S(=O)(=O)O)cc(S(=O)(=O)O)c45)ccc3C)c2)c1 [suramin] | 74.2 µM | – |
| O=C1C=CC(=C(c2ccc(O)cc2)c2ccc(O)cc2)C=C1 [aurin] | 17.6 µM | – |
| NC[C@H]1O[C@H](O[C@H]2[C@H](O[C@@H]3O[C@H](CO)[C@@H](O)[C@H]3O)[C@@H](O)[C@H](N)C[C@@H]2N)[C@H](N)[C@@H](O)[C@@H]1O [ribostamycin] | – | 35.6 µM |
